For 18 compounds, IC50 results are on record in patent US20240109917A1 (ACTELION PHARMACEUTICALS LTD, priority 2020, published 2024).

Assay [1] has as its target Tb-labeled inactive PDGFRβ (Homo sapiens (Human), UniProt P09619). The assay is described as follows: PDGFRβ LanthaScreen Assay. Type of assay: binding. As to conditions: read-out: PDGFR Lantha IC50. (In general: TR-FRET usually uses a lanthanide donor and a delayed reading to cut background.)
Assay [2] has as its target PDGFRβ (Rattus norvegicus (Rat), UniProt Q05030). The assay is described as follows: PDGFRβ Cellular Assay (PDGFRb P-Y751 HTRF in A10 cells stimulated with PDGF-BB). It is filed as cell-based. An outline of the steps:
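Rat A10 cells, plated overnight, were treated with compound for 3 hours, then stimulated with PDGF-BB (working stock 100 ng/mL in 10% FBS medium). After lysis, PDGFRβ P-Y751 was detected by HTRF.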

Where two headings read alike, the source gives them in different places.

PDGFRβ, sequence (Q05030 32-1097): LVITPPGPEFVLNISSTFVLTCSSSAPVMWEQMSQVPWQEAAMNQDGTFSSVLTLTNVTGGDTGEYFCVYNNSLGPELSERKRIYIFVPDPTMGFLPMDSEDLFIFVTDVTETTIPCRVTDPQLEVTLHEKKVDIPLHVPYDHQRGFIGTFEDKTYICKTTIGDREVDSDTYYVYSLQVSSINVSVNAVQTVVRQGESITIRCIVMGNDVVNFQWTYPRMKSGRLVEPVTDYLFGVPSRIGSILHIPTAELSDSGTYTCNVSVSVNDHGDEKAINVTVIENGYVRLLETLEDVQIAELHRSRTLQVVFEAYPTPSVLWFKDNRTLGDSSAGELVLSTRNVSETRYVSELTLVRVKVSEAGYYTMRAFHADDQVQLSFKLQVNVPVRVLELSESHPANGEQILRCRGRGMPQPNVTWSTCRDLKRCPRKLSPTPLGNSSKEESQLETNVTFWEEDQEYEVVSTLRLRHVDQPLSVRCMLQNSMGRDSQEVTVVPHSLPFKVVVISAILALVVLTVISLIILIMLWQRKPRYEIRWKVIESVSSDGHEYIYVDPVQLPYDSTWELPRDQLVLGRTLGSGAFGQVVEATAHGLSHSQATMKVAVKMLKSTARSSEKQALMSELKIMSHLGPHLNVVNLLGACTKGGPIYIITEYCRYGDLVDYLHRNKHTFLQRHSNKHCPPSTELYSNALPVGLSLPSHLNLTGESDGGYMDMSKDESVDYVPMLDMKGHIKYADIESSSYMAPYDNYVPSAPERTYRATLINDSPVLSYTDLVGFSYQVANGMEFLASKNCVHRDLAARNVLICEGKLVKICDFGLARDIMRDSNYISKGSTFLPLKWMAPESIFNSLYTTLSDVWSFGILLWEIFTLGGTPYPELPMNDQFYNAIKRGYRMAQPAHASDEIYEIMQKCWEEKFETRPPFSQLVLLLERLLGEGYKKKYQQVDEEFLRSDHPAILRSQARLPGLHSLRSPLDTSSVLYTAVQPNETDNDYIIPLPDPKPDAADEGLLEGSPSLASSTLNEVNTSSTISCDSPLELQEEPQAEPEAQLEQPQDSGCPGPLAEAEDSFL
Tb-labeled inactive PDGFRβ, sequence (P09619 33-1106): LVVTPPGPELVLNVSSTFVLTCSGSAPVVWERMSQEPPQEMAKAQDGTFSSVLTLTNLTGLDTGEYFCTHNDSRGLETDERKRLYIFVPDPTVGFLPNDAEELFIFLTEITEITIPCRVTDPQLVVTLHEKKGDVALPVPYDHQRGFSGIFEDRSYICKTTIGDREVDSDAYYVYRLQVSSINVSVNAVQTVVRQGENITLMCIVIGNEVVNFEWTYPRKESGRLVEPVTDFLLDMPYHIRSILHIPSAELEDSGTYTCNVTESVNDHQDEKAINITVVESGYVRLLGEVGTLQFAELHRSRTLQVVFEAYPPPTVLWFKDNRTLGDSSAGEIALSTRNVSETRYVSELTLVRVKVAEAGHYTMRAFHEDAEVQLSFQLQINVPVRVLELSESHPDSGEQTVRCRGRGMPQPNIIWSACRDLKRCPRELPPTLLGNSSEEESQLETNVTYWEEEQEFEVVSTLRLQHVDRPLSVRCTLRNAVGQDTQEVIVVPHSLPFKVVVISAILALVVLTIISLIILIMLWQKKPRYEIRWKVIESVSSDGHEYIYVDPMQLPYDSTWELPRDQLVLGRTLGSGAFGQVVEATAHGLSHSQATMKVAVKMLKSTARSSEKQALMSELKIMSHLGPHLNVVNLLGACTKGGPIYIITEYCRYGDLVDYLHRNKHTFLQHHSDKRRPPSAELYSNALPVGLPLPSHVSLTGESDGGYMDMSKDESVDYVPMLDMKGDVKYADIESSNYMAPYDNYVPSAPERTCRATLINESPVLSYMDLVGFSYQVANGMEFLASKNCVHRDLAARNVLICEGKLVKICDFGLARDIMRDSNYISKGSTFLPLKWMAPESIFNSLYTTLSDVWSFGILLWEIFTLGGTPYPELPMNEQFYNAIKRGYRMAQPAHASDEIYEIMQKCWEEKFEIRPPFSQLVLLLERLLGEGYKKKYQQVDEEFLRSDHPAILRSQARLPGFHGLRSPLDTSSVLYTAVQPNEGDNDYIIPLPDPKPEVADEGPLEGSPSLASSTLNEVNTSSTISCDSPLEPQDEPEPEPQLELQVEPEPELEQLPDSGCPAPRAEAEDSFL

As for `COc1cc(-c2cn3ncc(C(=O)Nc4cc(NC(=O)CN5CC(C)(C)C5)cnc4C)c3s2)c(OC)nn1` [Example 393, 2-(3,6-dimethoxypyridazin-4-yl)-N-(5-(2-(3,3-dimethylazetidin-1-1)acetamido)-2-methylpyridin-3-yl)pyrazolo[5,1-b]thiazole-7-carboxamide], the results for the IC50 in assay [1] and in assay [2] (read-out: PDGFR Cellular IC50) were 5.1 nM and 3.5 nM, respectively.
For `COc1cnccc1-c1cn2ncc(C(=O)Nc3cc(NC(=O)CN4CC(C)(C)C4)cnc3C)c2s1` [Example 399, N-(5-(2-(3,3-dimethylazetidin-1-yl)acetamido)-2-methylpyridin-3-yl)-2-(3-methoxypyridin-4-yl)pyrazolo[5,1-b]thiazole-7-carboxamide], in that order: 1.1 nM and 1.3 nM.
For `Cc1ncc(NC(=O)CN2CCC[C@@H]2C)cc1NC(=O)c1cnn2cc(-c3cnn(C)c3)sc12` [Example 27, (S)-2-(1-methyl-1H-pyrazol-4-yl)-N-(2-methyl-5-(2-(2-methyl-pyrrolidin-1-yl)acetamido)pyridin-3-yl)pyrazolo[5,1-b]thiazole-7-carboxamide], in that order: 16.2 nM and 6.3 nM.
For the compound `COc1ncc(-c2cn3ncc(C(=O)Nc4cc(NC(=O)CN5CC(C)(C)C5)cnc4C)c3s2)c(OC)n1` [Example 392, 2-(2,4-dimethoxypyrimidin-5-yl)-N-(5-(2-(3,3-dimethylazetidin-1-yl)acetamido)-2-methylpyridin-3-yl)pyrazolo[5,1-b]thiazole-7-carboxamide], the IC50 (usually the concentration that gives 50% inhibition) was 4.6 nM in assay [1] and 4.8 nM in assay [2] (PDGFR Cellular IC50).
For the compound `Cc1ncc(NC(=O)CN2CC(C)(C)C2)cc1NC(=O)c1cnn2cc(-c3cncnc3C)sc12` [Example 398, N-(5-(2-(3,3-dimethylazetidin-1-yl)acetamido)-2-methylpyridin-3-yl)-2-(4-methylpyrimidin-5-yl)pyrazolo[5,1-b]thiazole-7-carboxamide], the results for the half-inhibitory concentration (IC50) in assay [1] and in assay [2] (read-out: PDGFR Cellular IC50) were 181 nM and 169 nM, respectively.
As to `COCCCc1cn2ncc(C(=O)Nc3cc(C(=O)NCCN4CCCC4(C)C)cnc3C)c2s1` [Example 360, N-(5-((2-(2,2-dimethylpyrrolidin-1-yl)ethyl)carbamoyl)-2-methylpyridin-3-yl)-2-(3-methoxypropyl)pyrazolo[5,1-b]thiazole-7-carboxamide], the values for the IC50 in assay [1] and in assay [2] (PDGFR Cellular IC50) were 100 nM and 59.2 nM, respectively.
Consider `COc1ncccc1-c1cn2ncc(C(=O)Nc3cc(NC(=O)CN4CC5(COC5)C4)cnc3C)c2s1` [Example 404, N-(5-(2-(2-oxa-6-azaspiro[3.3]heptan-6-yl)acetamido)-2-methylpyridin-3-yl)-2-(2-methoxypyridin-3-yl)pyrazolo[5,1-b]thiazole-7-carboxamide], for which the IC50 in assay [1] was found to be 4.9 nM; in assay [2] (read-out: PDGFR Cellular IC50), 7.2 nM.
For `COCCn1cc(-c2cn3ncc(C(=O)Nc4cc(NC(=O)CN5CCC(C6CC6)C5)cnc4C)c3s2)cn1` (stereo not drawn) [Example 341, N-(5-(2-(3-cyclopropylpyrrolidin-1-yl)acetamido)-2-methylpyridin-3-yl)-2-(1-(2-methoxyethyl)-1H-pyrazol-4-yl)pyrazolo[5,1-b]thiazole-7-carboxamide], in that order: 4.6 nM and 5.1 nM.
For `Cc1ncc(NC(=O)CN2CCC23CCC3)cc1NC(=O)c1cnn2cc(-c3ccnc(N4CCOCC4)c3)sc12` [Example 353, N-(5-(2-(1-azaspiro[3.3]heptan-1-yl)acetamido)-2-methylpyridin-3-yl)-2-(2-morpholinopyridin-4-yl)pyrazolo[5,1-b]thiazole-7-carboxamide], in that order: 1.4 nM and 1.6 nM.
For the compound `COCCn1cc(-c2cn3ncc(C(=O)Nc4cc(NC(=O)[C@H]5CCCN5C(C)C)cnc4C)c3s2)cn1` [Example 344, (R)—N-(5-(1-isopropylpyrrolidine-2-carboxamido)-2-methylpyridin-3-yl)-2-(1-(2-methoxyethyl)-1H-pyrazol-4-yl)pyrazolo[5,1-b]thiazole-7-carboxamide], the IC50 is 67.5 nM in assay [1] and 59.2 nM in assay [2] (read-out: PDGFR Cellular IC50).
For `COc1ncccc1-c1cn2ncc(C(=O)Nc3cc(NC(=O)CN4CC(C)(OC)C4)cnc3C)c2s1` [Example 396, N-(5-(2-(3-methoxy-3-methylazetidin-1-yl)acetamido)-2-methylpyridin-3-yl)-2-(2-methoxypyridin-3-yl)pyrazolo[5,1-b]thiazole-7-carboxamide], in that order: 1.8 nM and 4.3 nM.
For `COc1ncccc1-c1cn2ncc(C(=O)Nc3cc(NC(=O)CN4C[C@@H](CO)OC(C)(C)C4)cnc3C)c2s1` [Example 380, (S)—N-(5-(2-(6-(hydroxymethyl)-2,2-dimethylmorpholino)acetamido)-2-methylpyridin-3-yl)-2-(2-methoxypyridin-3-yl)pyrazolo[5,1-b]thiazole-7-carboxamide], in that order: 3 nM and 9.8 nM.
Take `Cc1ncc(NC(=O)C2CN(C(C)C)C2)cc1NC(=O)c1cnn2cc(-c3cnn(C)c3C)sc12` [Example 357, 2-(1,5-dimethyl-1H-pyrazol-4-yl)-N-(5-(1-isopropylazetidine-3-carboxamido)-2-methylpyridin-3-yl)pyrazolo[5,1-b]thiazole-7-carboxamide]: the figures for the IC50 in assay [1] and in assay [2] (read-out: PDGFR Cellular IC50) were 4.5 nM and 56.9 nM, respectively.
The like results for `CCc1ncccc1-c1cn2ncc(C(=O)Nc3cc(NC(=O)CN4CC(C)(C)C4)cnc3C)c2s1` [Example 391, N-(5-(2-(3,3-dimethylazetidin-1-yl)acetamido)-2-methylpyridin-3-yl)-2-(2-ethylpyridin-3-yl)pyrazolo[5,1-b]thiazole-7-carboxamide] were, in that order, 18.4 nM and 10.4 nM.
The like results for `COc1ncccc1-c1cn2ncc(C(=O)Nc3cc(NC(=O)CN4CC(C)(C)C4)cnc3C)c2s1` [Example 369, N-(5-(2-(3,3-dimethylazetidin-1-yl)acetamido)-2-methylpyridin-3-yl)-2-(2-methoxypyridin-3-yl)pyrazolo[5,1-b]thiazole-7-carboxamide] were, in that order, 1.4 nM and 1.6 nM.
For `Cc1ncc(NC(=O)CN2C[C@@H](CO)O[C@@H](C)C2)cc1NC(=O)c1cnn2cc(-c3cnn(C)c3)sc12` (relative stereo) [Example 378, N-(5-(2-(cis-2-(hydroxymethyl)-6-methylmorpholino)acetamido)-2-methylpyridin-3-yl)-2-(1-methyl-1H-pyrazol-4-yl)pyrazolo[5,1-b]thiazole-7-carboxamide], in that order: 10.2 nM and 304 nM.
As to `Cc1ncc(NC(=O)C2CCN(C(C)C)C2)cc1NC(=O)c1cnn2cc(-c3cn(C)nc3C)sc12` (stereo not drawn) [Example 355, 2-(1,3-dimethyl-1H-pyrazol-4-yl)-N-(5-(1-isopropylpyrrolidine-3-carboxamido)-2-methylpyridin-3-yl)pyrazolo[5,1-b]thiazole-7-carboxamide], the IC50 came to 11.3 nM in assay [1] and 50.3 nM in assay [2] (read-out: PDGFR Cellular IC50).
For `COc1ncccc1-c1cn2ncc(C(=O)Nc3cc(NC(=O)CN4CC5(CCOCC5)C4)cnc3C)c2s1` [Example 403, N-(5-(2-(7-oxa-2-azaspiro[3.5]nonan-2-yl)acetamido)-2-methylpyridin-3-yl)-2-(2-methoxypyridin-3-yl)pyrazolo[5,1-b]thiazole-7-carboxamide carboxamide], in that order: 1.3 nM and 3.3 nM.
